Test results published in PMC6917776, “Discovery of a chemical probe for PRDM9” (Nature Communications, 2019).
“Also recorded” adds a separate entry of the source.

Tested on: spermatocytes
Experiment: Testis microinjection, meiotic chromosome spreads (SYCP1/SYCP3 staining)
Format: in vivo, mouse
Details: wild type mice, 2 µl of 1 µM into both testes at P12, analysed at P15
Description: Supplementary Figure 14. Comparison of meiotic progression in the presence of MRK -740-NC and MRK-740 treated spermatocytes. Representative images of meiotic chromosome […]
(c) untreated Prdm9-/- mice are presented. At p12, mice were treated with either MRK -740-NC or MRK-740 or received no treatment. Immunofluoresence co -staining was performed with SYCP1 (green) and SYCP3 (magenta) antibodies to visualize the formation of the synaptonemal […]
mice treated with MRK-740-NC.
(1 picture or pasted object on this page, not shown here) […]
Transgenic mouse lines used in this study
Prdm9KO 2, mice have been described and were maintained on a C57BL/6 background. Mice were housed under standard conditions, were maintained on a 12- hour light/dark cycle, were fed a standard chow diet containing 6% crude fat, and were treated in compliance with the institutional guidelines for animal care and use. All experimental protocols were approved by the Animal Care and Use Committee of Biological Resource Centre at Biopolis, A*STAR, […]
Testis microinjection protocol
Seminiferous tubule microinjection was performed as previously described 3,4. At postnatal day 12 (P12) A small incision was made in the abdomen of the mouse and testes were exposed by pulling the abdominal fat pad. Testis were injected using a micro-capillary pipette injector (made in-house). […]

| SMILES | Meiotic phenotype of spermatocytes, pachytene stage (in words) |
| --- | --- |
| COc1cc(OC)cc(-c2noc(N3CCN(C)C4(CCN(c5ccccc5)CC4)C3)n2)c1 [MRK-740-NC] | Normal synaptonemal complex formation; also recorded: no overt meiotic defects |
| COc1cc(OC)cc(-c2noc(N3CCN(C)C4(CCN(c5ccnc(C)c5)CC4)C3)n2)c1 [MRK-740] | Abnormal synaptonemal complex formation; also recorded: meiotic defects including non-homologous synapsis or failed pairing of chromosomal homologs |
